# Data published in patent US11649268B2, “Fibronectin-binding peptides for use in tumor or fibrosis diagnosis and therapy” (priority 2016, dated 2023).
# Entries after “also recorded” stand apart in the source; their conditions may differ. Like-named read-outs stand apart in the source and are kept apart here. Where a SMILES comes first, the peptide text is derived from it. Primed or numbered codes have the meaning given here. Where no end group is shown, it is not given here. The star is where a group is joined. X1 = O=C(O)CN1CCN(CC(=O)O)CCN(C(CCC(=O)NCCN2C(=O)CC(*)C2=O)C(=O)O)CC1; NODAGA′ = NODAGA chelator (maleimide-conjugated) for radiolabelling; Alexa 488 = Alexa Fluor 488 fluorescent dye
# How the values were obtained:
# in vivo = conditions: female, CD1 nude, mouse, iv, 150 kBq, total radioactivity
# Experimental: (§1) PC-3 cells (human prostate carcinoma cell line, ACC-465, DSMZ, Braunschweig, Germany) were cultured in Roswell Park Memorial Institute 1640 medium (Amimed, Bioconcept, Switzerland). Cells were cultured as monolayers at 37° C. in a humidified atmosphere containing 5% CO2.
# (§2) In vivo experiments were approved by the local veterinarian department and conducted in accordance with the Swiss law for animal protection. The 3-5 weeks-old female CD1 nude mice were purchased from Charles River (Germany). After 5-7 days acclimatisation period, the tumor cells were subcutaneously inoculated in both shoulders of the mice (3*106-1*107 cells in 100-150 μL PBS per side). Experiments were performed 3-4 weeks after inoculation.
# (§3) The tissue-specific peptide pharmacokinetics, particularly in cancer stroma, were assessed in groups of 4 PC-3-bearing mice that were injected with approximately 150 kBq ^111In-FnBPA5 respectively ^111In-scraFnBPA5 (2.4 nmol/[…] PBS) into the tail vein and biodistribution of peptides was analyzed at different time points (1, 4, 24 and 96 hours post injection (p.i. and after sacrification)) by means of percentage of injected activity per gram tissue (% IA/g).
# PC-3 xenografts [1] = tested on: PC-3 xenografts
# Experimental: as §1, §2
# SPECT/CT experiments were performed using a 4-head multiplexing multipinhole camera (NanoSPECT/CTplus, Bioscan Inc., Washington D.C., USA). CT scans were performed with a tube voltage of 45 kV and a tube current of […]. SPECT scans at 24, 72 and 96 hours post injection were obtained with an acquisition time of 20-90 sec. per view resulting in a total scanning time of 20-45 min per mouse.
# The distribution of ^111In-radiolabeled FnBPA5 peptide injected into the tail vein of a living mouse was monitored by means of SPECT/CT for a period of 96 hours. […] (2.4 nmol, 100 μL PBS) into the tail vein. […] SPECT images were reconstructed using HiSPECT software (Scivis GmbH, Goettingen, Germany). The images were reconstituted and processed with InVivoScope® software (BioscanInc., Washington D.C., USA) and zoom in videos were generated using Adobe Flash.
# To visualize additional binding of the tracer to tissues throughout the body, the kidneys were subsequently removed from the sacrificed mice and the scan was repeated.
# PC-3 xenografts [2] = test: In vivo blocking study with pre-injected unlabeled FnBPA5; set-up: species or system mouse; conditions: for effect of pre-injection of unlabeled FnBPA5 on accumulation: approximately 10-fold excess unlabeled FnBPA5, 4 hour post-injection
# Experimental: (A) Biodistribution of FnBPA5 in PC-3 bearing mice was monitored at different time points in various organs. […] (C) Blocking studies were performed and uptake was analyzed 4 hour post-injection.
# as §3
# [3] = Experimental: To assess in vitro plasma stability 12 MBq ^111In-[FnBPA5-NODAGA] and ^111In-[scraFnBPA5-NODAGA] were incubated with 400 μL human blood plasma at 37° C. At different time points (0, 0.25, 0.5, 1, 2, 48 and 72 hours) 40 μL of plasma was taken out and precipitated by the addition of 200 μL EtOH, acetonitrile, 0.1% TFA.
# [4] = tested on: fibrillar Fn in fibroblast ECM; test: Binding to fibrillar Fn in fibroblast-assembled ECM (colocalization); type: cell-based; conditions: normal human dermal fibroblasts, 2 days ECM, 5 μg/ml peptide, 1 hour
# Chain of fibrillar Fn in fibroblast ECM (P02751 32-290 limits assumed): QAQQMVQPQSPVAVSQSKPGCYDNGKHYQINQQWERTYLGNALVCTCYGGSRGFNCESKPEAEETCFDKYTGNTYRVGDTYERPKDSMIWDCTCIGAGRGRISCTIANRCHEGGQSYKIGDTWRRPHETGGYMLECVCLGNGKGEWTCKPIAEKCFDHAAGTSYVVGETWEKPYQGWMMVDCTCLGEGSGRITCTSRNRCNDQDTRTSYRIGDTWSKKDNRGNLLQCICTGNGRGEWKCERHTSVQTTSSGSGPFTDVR
# Experimental: Fibroblast ECM samples (FIG. 2C) were acquired with the same microscope using an oil immersion 1.45 NA 60× objective with a pixel resolution of 1024×1024.
# To achieve this, normal human dermal fibroblasts (PromoCell, Heidelberg, Germany) were cultured in alpha minimum essential medium (α-MEM) with 10% fetal bovine serum (FBS) from BioWest, Nuaillé, France, and split before reaching confluence. Cells were seeded onto Fn-coated 8-well chambered coverglasses (Lab-Tek, Nalgene Nunc, Thermo Scientific, Waltham, Mass., USA) at a density of 30×10^3 cells per cm^2 and allowed to attach to the surface before medium exchange to medium containing 50 μg/ml unlabeled Fn. Cells were cultured for 48 hours. Fibronectin was then stained using a rabbit polyclonal anti-fibronectin antibody (ab23750, abcam, Cambridge, UK) and 5 μg/ml FnBPA5-Alexa488 respectively scr-FnBPA5-Alexa488 peptide for 1 hour before fixation with a 4% paraformaldehyde solution in PBS. After fixation cells were permeabilized for 10 minutes with PBS containing 0.01% Triton X-100. After a washing step samples were blocked in 4% BSA and 4% donkey serum for 1 hour at room temperature. Samples were then incubated for 1 hour with a donkey anti-rabbit Alexa 546 (Invitrogen) secondary antibody and Phalloidin-633 (Invitrogen, Carlsbad, Calif., USA). Before imaging cell nuclei were stained using DAPI. […]
# [5] = tested on: manually pulled relaxed Fn fibers (fibrillar Fn); test: Manually pulled Fn fiber binding assay (confocal microscopy); set-up: species or system human; conditions: for binding to manually pulled Fn fibers (peptide signal): confocal microscopy, peptide signal vs Fn-Cy5
# Chain of manually pulled relaxed Fn fibers (fibrillar Fn) (P02751 32-290 limits assumed): as above
# Excerpt: Manually pulled Fn fibers were used as a model system for fibrillar Fn as described previously (W. C. Little, M. L. Smith, U. Ebneter, and V. Vogel, “Assay to mechanically tune and optically probe fibrillar fibronectin conformations from fully relaxed to breakage,” Matrix Biology, vol. 27, no. 5, pp. 451-461, June 2008). Fibers containing 5% of photolabeled Fn-Cy5 were deposited onto a stretchable silicone sheet, relaxed to half of their original length, corresponding to a total 7% molecular strain and after a blocking step with 4% bovine serum albumin in PBS, they were incubated with different concentrations of Alexa488 fluorescently labeled FnBPA5 to obtain a binding curve.
# Manually pulled Fn fiber samples were imaged with an Olympus FV1000 confocal microscope using a 40× water immersion objective with a numerical aperture of 0.9. Alexa488-FnBPA5 and Fn-Cy5 channels were imaged with a 512×512 pixel resolution and photomultiplier tube voltage and laser powers were kept constant within an experiment.
# Images were analyzed using Fiji-ImageJ and Matlab (MathWorks, Natick, Mass., USA). […] Dark current values were subtracted from images and pixels with intensities below a cutoff threshold and at saturation were excluded from analysis. Approximately 10 fibers were imaged per experimental condition and each of these conditions was done in triplicate. […] Data points were fit using the Hill model assuming non-cooperative binding (using the below equation) and plot using Origin.
# To assess binding constant of Alexa488-FnBPA5 and of its scrambled analogue to Fn fibers a fiber stretch assay as described above and before (Little et al., Matrix Biology, vol. 27, no. 5, pp. 451-461, June 2008) was used. Fn fibers are manually pulled from a Fn solution containing 5% fluorophore labeled Fn and deposited onto a silicone membrane. Silicone membranes can then be stretched or relaxed to desired mechanical strain state.
# Peptide fluorescence intensity normalized against the Cy5-intensity from the Fn-fibers for different peptide concentrations was assessed. Intensity ratio of 10 μM FnBPA5-488 was defined as saturated and all other intensity ratios were normalized with this factor.
# relaxed Fn fibers = test: Displacement assay on manually pulled Fn fibers against FnBPA5-Alexa488; type: binding, human; conditions: cold labeled competitor
# Chain of relaxed Fn fibers (P02751 95-273 limits assumed): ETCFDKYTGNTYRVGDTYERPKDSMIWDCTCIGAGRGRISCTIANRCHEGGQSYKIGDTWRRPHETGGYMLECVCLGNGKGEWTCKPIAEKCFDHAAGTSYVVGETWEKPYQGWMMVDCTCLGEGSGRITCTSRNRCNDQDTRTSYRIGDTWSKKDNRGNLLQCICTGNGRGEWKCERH
# Experimental: Relaxed Fn fibers were incubated with FnBPA5-Alexa488 peptide, washed and then incubated with different concentrations of FnBPA5-In to measure the concentration of competitor.
# To assess whether the presence of the chelator for the radiolabeled ^111In-isotope impairs FnBPA5 binding to manually pulled Fn fibers, a displacement assay was performed using ^natIn-FnBPA5 (cold labeled) against FnBPA5-Alexa488.
# N-terminal Fn fragments = N-terminal Fn fragments (Homo sapiens, UniProt P02751); conditions: literature value, Meenan et al. 2007; read-out: Kd to N-terminal Fn fragments in solution; cited from earlier work
# Chain of N-terminal Fn fragments (P02751 52-272 limits assumed): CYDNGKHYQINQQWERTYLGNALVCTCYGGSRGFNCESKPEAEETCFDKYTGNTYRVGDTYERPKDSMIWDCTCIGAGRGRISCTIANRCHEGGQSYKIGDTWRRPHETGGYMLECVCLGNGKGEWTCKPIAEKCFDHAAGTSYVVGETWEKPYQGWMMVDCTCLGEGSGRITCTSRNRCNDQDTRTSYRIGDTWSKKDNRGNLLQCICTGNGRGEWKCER
# soluble plasma Fn = test: Fluorescence anisotropy titration (fluorescence polarization); type: binding, human; conditions: 100 nM Alexa-488 peptide in PBS, Fn 0 to 1.4 μM, 20° C.; read-out: dissociation constant Kd to soluble plasma Fn
# Chain of soluble plasma Fn (P02751 32-290 limits assumed): as the sequence (P02751 32-290 limits assumed) above
# Experimental: The binding affinities of Fn to FnBPA5 were determined in three independent measurements by anisotropy titrations in a Cary Eclipse Fluorescence Spectrophotometer (Agilent Technologies) equipped with automated polarizers. FnBPA5 and its scrambled derivative were synthesized with an N-terminal Alexa-488 dye. The anisotropy of 100 nM Alexa-488 labelled peptide was measured in PBS at Fn concentrations ranging from 0 to 1.4 μM. Excitation and emission were at λex 480 nm and λem 520 nm respectively with both slit 10 nm, 20° C., 5 s signal acquisition and g=1.4. The Kd values were determined by fitting the data to a one-site-binding model using Origin 7 (OriginLab Northampton, Mass., USA).
# With higher Fn concentration an increasing amount of peptide is bound to Fn leading to a shift in fluorescence anisotropy.
# [6] = 96 hours post injection, 12 MBq, tail vein
# [7] = 96 hours post injection, kidneys removed
Molecule,"SPECT/CT kidney uptake (PC-3 xenografts [1]; mouse, in vivo)","SPECT/CT uptake in other organs after kidney removal (PC-3 xenografts [1]; mouse, in vivo)",effect of pre-injection of unlabeled FnBPA5 on accumulation (PC-3 xenografts [2]),binding to fibrillar Fn in fibroblast ECM [4],binding to manually pulled Fn fibers (peptide signal) [5],SPECT/CT kidney uptake (PC-3 xenografts [1]; [6]),SPECT/CT uptake in other organs after kidney removal (PC-3 xenografts [1]; [7]),Kd (soluble plasma Fn) [nM],also measured
"CC[C@H](C)[C@H](NC(=O)[C@@H](NC(=O)[C@H](CCC(=O)O)NC(=O)CNC(=O)[C@H](Cc1ccccc1)NC(=O)[C@H](CC(=O)O)NC(=O)[C@@H](NC(=O)[C@H](CCCCN)NC(=O)[C@@H](NC(=O)CNC(=O)[C@@H](NC(=O)[C@H](CC(C)C)NC(=O)[C@H](CC(=O)O)NC(=O)[C@H](CCC(=O)O)NC(=O)[C@H](CCC(N)=O)NC(=O)[C@H](CCC(=O)O)NC(=O)[C@H](CO)NC(=O)CNC(=O)[C@@H](N)CSC1CC(=O)N(CCNC(=O)CCC(C(=O)O)N2CCN(CC(=O)O)CCN(CC(=O)O)CC2)C1=O)[C@@H](C)O)[C@@H](C)O)C(C)C)[C@@H](C)O)C(=O)N[C@H](C(=O)N[C@H](C(=O)N[C@@H](CC(N)=O)C(=O)N[C@@H](CCC(=O)O)C(=O)N[C@@H](C)C(=O)N[C@H](C(=O)N[C@@H](CCC(=O)O)C(=O)N[C@H](C(=O)N[C@H](C(=O)N[C@H](C(=O)N[C@@H](CO)C(=O)NCC(=O)N[C@@H](CO)C(=O)N[C@H](C(=O)N[C@@H](Cc1c[nH]cn1)C(=O)NCC(=O)N[C@H](C(=O)N[C@@H](CCCCN)C(=O)N[C@H](C(=O)O)C(C)C)[C@@H](C)O)[C@@H](C)O)[C@@H](C)O)C(C)C)[C@@H](C)O)[C@@H](C)O)C(C)C)C(C)C (stereo partly drawn) [^111In-scraFnBPA5, metal not drawn, reference compound] (H-C(X1)GSEQEDLTGTKVDFGETIVVNEATETVTSGSTHGTKV-OH; N-terminus and C-terminus assumed)",mainly accumulated in the kidneys,no uptake into other tissues was visible,no significant differences,–,–,–,–,–,tissue uptake at 1 h (in vivo; kidney accumulation): 164 ± 18.9 %ID/g
scraFnBPA5: Negative control of FnBPA5 with scrambled sequence (SEQ ID NO 296) (CGSEQEDLTGTKVDFGETIVVNEATETVTSGSTHGTKV) [reference compound],dominant kidney uptake,does not show any specific uptake in other organs,–,unspecificly attached to the matrix,within the background noise,–,–,–,plasma stability [3]: high stability
^natIn-FnBPA5: Cold labeled (natural indium) chelator-conjugated FnBPA5 (C(NODAGA′)GGGQVTTESNLVEFDEESTKGIVTGAVSDHTTVEDTK; also: natural indium complexed by chelator),–,–,–,–,–,–,–,–,IC50 (relaxed Fn fibers): 49 nM
"CC[C@H](C)[C@H](NC(=O)CNC(=O)[C@H](CCCCN)NC(=O)[C@@H](NC(=O)[C@H](CO)NC(=O)[C@H](CCC(=O)O)NC(=O)[C@H](CCC(=O)O)NC(=O)[C@H](CC(=O)O)NC(=O)[C@H](Cc1ccccc1)NC(=O)[C@H](CCC(=O)O)NC(=O)[C@@H](NC(=O)[C@H](CC(C)C)NC(=O)[C@H](CC(N)=O)NC(=O)[C@H](CO)NC(=O)[C@H](CCC(=O)O)NC(=O)[C@@H](NC(=O)[C@@H](NC(=O)[C@@H](NC(=O)[C@H](CCC(N)=O)NC(=O)CNC(=O)CNC(=O)CNC(=O)[C@@H](N)CSC1CC(=O)N(CCNC(=O)CCC(C(=O)O)N2CCN(CC(=O)O)CCN(CC(=O)O)CC2)C1=O)C(C)C)[C@@H](C)O)[C@@H](C)O)C(C)C)[C@@H](C)O)C(=O)N[C@H](C(=O)N[C@H](C(=O)NCC(=O)N[C@@H](C)C(=O)N[C@H](C(=O)N[C@@H](CO)C(=O)N[C@@H](CC(=O)O)C(=O)N[C@@H](Cc1c[nH]cn1)C(=O)N[C@H](C(=O)N[C@H](C(=O)N[C@H](C(=O)N[C@@H](CCC(=O)O)C(=O)N[C@@H](CC(=O)O)C(=O)N[C@H](C(=O)N[C@@H](CCCCN)C(=O)O)[C@@H](C)O)C(C)C)[C@@H](C)O)[C@@H](C)O)C(C)C)[C@@H](C)O)C(C)C (stereo partly drawn) [^111In-FnBPA5, metal not drawn] (H-C(X1)GGGQVTTESNLVEFDEESTKGIVTGAVSDHTTVEDTK-OH; N-terminus and C-terminus assumed)",–,–,significant reduction in the uptake of ^111In-FnBPA5 in both liver and tumor,–,–,mainly accumulated in the kidneys,predominant uptake in tumor and liver,–,"tissue uptake at 1 h (in vivo; kidney accumulation, kidneys, 1 hour p.i. (maximum)): 141 ± 18.1 %ID/g; tissue uptake at 1 h (in vivo; tumor uptake, PC-3 tumor, 1 h p.i. (maximum)): 4.74 ± 0.77 %ID/g; plasma stability, peptide intact ([3]; human blood plasma, 37° C., after 72 hours): still intact; uptake decrease in liver by blocking (PC-3 xenografts [2]; pre-injection of 100 μg unlabeled FnBPA5, 4 hour post-injection, liver): 58.2%; uptake decrease in tumor tissue by blocking (PC-3 xenografts [2]; pre-injection of 100 μg unlabeled FnBPA5, 4 hour post-injection, tumor): 35.6%"
CGGGQVTTESNLVEFDEESTKGIVTGAVSDHTTVEDTK [FnBPA5],–,–,–,specific binding,specific peptide binding; also recorded: significantly higher binding; also recorded: much stronger than the scrambled control derivative,dominant kidney uptake,uptake in tumors and liver,75,"plasma stability ([3]; 37° C., blood plasma and water, 1 hour time point): high stability; Kd (N-terminal Fn fragments): 44.2 nM; Kd ([5]; relaxed fibers, 7% molecular strain, Alexa488-labelled peptide, Hill fit, read-out: dissociation constant Kd to manually pulled relaxed Fn fibers): 28 nM"
Alexa 488-FnBPA5: FnBPA5 with N-terminal Alexa-488 dye ({Alexa 488}-CGGGQVTTESNLVEFDEESTKGIVTGAVSDHTTVEDTK),–,–,–,–,–,–,–,75,–
